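Protocol summary: plate cells (96-well), add compound at 5 concentrations, incubate 48 h, interpolate endpoints linearly. At the TGI there is no net growth.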 Where a SMILES comes first, the peptide text is derived from it. Bridges are numbered along the chain shown (N, C = ends).
What was measured:
Assay in all cases: NCI tumour cell line growth inhibition, 48 h
[1] = system: 786-0 renal
[2] = system: A549 NSCLC
[3] = system: ACHN renal
[4] = system: BT-549 breast
[5] = system: CAKI-1 renal
[6] = system: CCRF-CEM leukemia
[7] = system: COLO 205 colon
[8] = system: DU-145 prostate
[9] = system: EKVX NSCLC
[10] = system: HCC-2998 colon
[11] = system: HCT-116 colon
[12] = system: HCT-15 colon
[13] = system: HL-60(TB) leukemia
[14] = system: HOP-62 NSCLC
[15] = system: HS 578T breast
[16] = system: HT29 colon
[17] = system: IGROV1 ovarian
[18] = system: K-562 leukemia
[19] = system: KM12 colon
[20] = system: LOX IMVI melanoma
[21] = system: M14 melanoma
[22] = system: MALME-3M melanoma
[23] = system: MCF7 breast
[24] = system: MDA-MB-231 breast
[25] = system: MDA-MB-435
[26] = system: MDA-N
[27] = system: MOLT-4 leukemia
[28] = system: NCI-H226 lung
[29] = system: NCI-H23 lung
[30] = system: NCI-H460 lung
[31] = system: NCI-H522 lung
[32] = system: NCI/ADR-RES ovarian
[33] = system: OVCAR-3 ovarian
[34] = system: OVCAR-4 ovarian
[35] = system: OVCAR-5 ovarian
[36] = system: OVCAR-8 ovarian
[37] = system: PC-3 prostate
[38] = system: RPMI-8226 leukemia
[39] = system: RXF 393 renal
[40] = system: SF-268 CNS
[41] = system: SF-295 CNS
[42] = system: SF-539 CNS
[43] = system: SK-MEL-2 melanoma
[44] = system: SK-MEL-28 melanoma
[45] = system: SK-MEL-5 melanoma
[46] = system: SK-OV-3 ovarian
[47] = system: SN12C renal
[48] = system: SNB-19 CNS
[49] = system: SNB-75 CNS
[50] = system: SR leukemia
[51] = system: SW-620 colon
[52] = system: T-47D breast
[53] = system: TK-10 renal
[54] = system: U251 CNS
[55] = system: UACC-257 melanoma
[56] = system: UACC-62 melanoma
[57] = system: UO-31 renal
[58] = system: A498 renal
[59] = system: HOP-92 NSCLC

Q: Which results are given for `COC(=O)C1CCC(=O)NCCCCC(NC(=O)C(N)CC(=O)O)C(=O)N1` (stereo not drawn) (H-Asp-Lys-Glu-OMe; lactam 2-3; configuration not given here)?
A: TGI [1]: > 100 µM; TGI [2]: > 100 µM; TGI [3]: > 100 µM; TGI [4]: > 100 µM; TGI [5]: > 100 µM; TGI [6]: > 100 µM; TGI [7]: > 100 µM; TGI [8]: > 100 µM; TGI [9]: > 100 µM; TGI [10]: > 100 µM; TGI [11]: > 100 µM; TGI [12]: > 100 µM; TGI [13]: > 100 µM; TGI [14]: > 100 µM; TGI [15]: > 100 µM; TGI [16]: > 100 µM; TGI [17]: > 100 µM; TGI [18]: > 100 µM; TGI [19]: > 100 µM; TGI [20]: > 100 µM; TGI [21]: > 100 µM; TGI [22]: > 100 µM; TGI [23]: > 100 µM; TGI [24]: > 100 µM; TGI [25]: > 100 µM; TGI [26]: > 100 µM; TGI [27]: > 100 µM; TGI [28]: > 100 µM; TGI [29]: > 100 µM; TGI [30]: > 100 µM; TGI [31]: > 100 µM; TGI [32]: > 100 µM; TGI [33]: > 100 µM; TGI [34]: > 100 µM; TGI [35]: > 100 µM; TGI [36]: > 100 µM; TGI [37]: > 100 µM; TGI [38]: > 100 µM; TGI [39]: > 100 µM; TGI [40]: > 100 µM; TGI [41]: > 100 µM; TGI [42]: > 100 µM; TGI [43]: > 100 µM; TGI [44]: > 100 µM; TGI [45]: > 100 µM; TGI [46]: > 100 µM; TGI [47]: > 100 µM; TGI [48]: > 100 µM; TGI [49]: > 100 µM; TGI [50]: > 100 µM; TGI [51]: > 100 µM; TGI [52]: > 100 µM; TGI [53]: > 100 µM; TGI [54]: > 100 µM; TGI [55]: > 100 µM; TGI [56]: > 100 µM; TGI [57]: > 100 µM

Q: Which results are given for `C[C@H](NC(=O)C(C)(Cc1ccc(O)cn1)NC(=O)c1ccccc1)c1ccccc1` (some centres undefined)?
A: TGI [1]: > 100 µM; TGI [58]: > 100 µM; TGI [2]: > 100 µM; TGI [3]: > 100 µM; TGI [4]: > 100 µM; TGI [5]: > 100 µM; TGI [6]: > 100 µM; TGI [7]: > 100 µM; TGI [8]: > 100 µM; TGI [9]: > 100 µM; TGI [10]: > 100 µM; TGI [11]: > 100 µM; TGI [12]: > 100 µM; TGI [13]: > 100 µM; TGI [14]: > 100 µM; TGI [59]: > 100 µM; TGI [15]: > 100 µM; TGI [16]: > 100 µM; TGI [17]: > 100 µM; TGI [18]: > 100 µM; TGI [19]: > 100 µM; TGI [20]: > 100 µM; TGI [21]: > 100 µM; TGI [22]: > 100 µM; TGI [23]: > 100 µM; TGI [24]: > 100 µM; TGI [25]: > 100 µM; TGI [26]: > 100 µM; TGI [27]: > 100 µM; TGI [28]: > 100 µM; TGI [29]: > 100 µM; TGI [31]: > 100 µM; TGI [32]: > 100 µM; TGI [33]: > 100 µM; TGI [34]: > 100 µM; TGI [35]: > 100 µM; TGI [36]: > 100 µM; TGI [37]: > 100 µM; TGI [38]: > 100 µM; TGI [39]: > 100 µM; TGI [40]: > 100 µM; TGI [41]: > 100 µM; TGI [42]: > 100 µM; TGI [43]: > 100 µM; TGI [44]: > 100 µM; TGI [45]: > 100 µM; TGI [47]: > 100 µM; TGI [48]: > 100 µM; TGI [51]: > 100 µM; TGI [52]: > 100 µM; TGI [53]: > 100 µM; TGI [54]: > 100 µM; TGI [55]: > 100 µM; TGI [56]: > 100 µM; TGI [57]: > 100 µM

Q: Which results are given for `C(=Nc1ccc(-c2nc3ccccc3s2)cc1)c1cccs1`?
A: TGI [1]: > 100 µM; TGI [58]: 76.6 µM; TGI [2]: > 100 µM; TGI [3]: > 100 µM; TGI [4]: > 100 µM; TGI [5]: > 100 µM; TGI [6]: 3.76 µM; TGI [7]: > 100 µM; TGI [8]: > 100 µM; TGI [9]: > 100 µM; TGI [10]: > 100 µM; TGI [11]: > 100 µM; TGI [12]: > 100 µM; TGI [13]: 0.0298 µM; TGI [14]: > 100 µM; TGI [59]: 90.7 µM; TGI [15]: > 100 µM; TGI [16]: > 100 µM; TGI [17]: > 100 µM; TGI [18]: > 100 µM; TGI [19]: > 100 µM; TGI [20]: > 100 µM; TGI [21]: > 100 µM; TGI [22]: > 100 µM; TGI [25]: > 100 µM; TGI [26]: > 100 µM; TGI [27]: > 100 µM; TGI [28]: > 100 µM; TGI [29]: > 100 µM; TGI [30]: > 100 µM; TGI [31]: > 100 µM; TGI [32]: > 100 µM; TGI [33]: > 100 µM; TGI [34]: > 100 µM; TGI [35]: > 100 µM; TGI [36]: > 100 µM; TGI [37]: > 100 µM; TGI [38]: > 100 µM; TGI [39]: 85.3 µM; TGI [40]: > 100 µM; TGI [41]: 68.8 µM; TGI [42]: > 100 µM; TGI [43]: > 100 µM; TGI [44]: > 100 µM; TGI [45]: > 100 µM; TGI [46]: > 100 µM; TGI [47]: > 100 µM; TGI [48]: > 100 µM; TGI [49]: > 100 µM; TGI [50]: > 100 µM; TGI [51]: > 100 µM; TGI [52]: > 100 µM; TGI [53]: 78 µM; TGI [54]: > 100 µM; TGI [55]: > 100 µM; TGI [56]: > 100 µM; TGI [57]: > 100 µM

— PubChem BioAssay (NCI)
